Results as given in patent US8969409B2, “Treatment for pulmonary hypertension” (United Therapeutics Corporation, priority 2010, dated 2015).

How the values were obtained:
[1] = test system: pulmonary artery pressure (PAP); test: Rat model of acute PAH: U-44069 infusion, pulmonary artery pressure by telemetry; type: in vivo
Procedure: This study utilized administration of a thromboxane agonist to elevate pulmonary artery pressure (PAP) in the rat as a model for PAH. Treprostinil was administered to the rats by oral gavage (UT-15C), nose-only inhalation (Tyvaso) or in a combined oral+inhalation regimen, followed by PAP assessment.
Experimental Design: For this study, a rat model of acute PAH was developed with the ability to measure real-time PAP by telemetry from a catheter surgically implanted into the rat pulmonary artery. To induce PAH in this model, a 15 minute intravenous (IV) infusion of the thromboxane agoinst, U44069, was administered, and PAP was monitored and recorded every 5 seconds.
To establish this model, initial testing and optimization of the concentration and infusion rate of the U-44069 was performed to best achieve elevated PAP. […] Following the preliminary individual oral and inhaled treprostinil range-finding studies, a combination administration of oral+inhaled treprostinil was performed.
The animals received U-44069 (0.5 mg/mL) at a dose rate of 10 mL/kg/hr for 15 minutes for a total dose of 1.25 mg/kg/dose. The animals received 3 to 4 IV doses/session, as detailed below.
• 1. Animals were treated as follows: • 2. IV for 15 minutes • 3. Oral gavage, as soon as practicable following the 15-minute infusion • 4. 1 hour following gavage, IV for 15 minutes. • 5. 2 hours following gavage, IV for 15 minutes Dose 2, inhalation:
Animals were treated as follows: • 1. IV for 15 minutes • 2. Inhalation exposure, as soon as practicable following the 15-minute infusion • 3. Approximately 5 minutes after inhalation completion, IV for 15 minutes. • 4. 1 hour later, IV for 15 minutes Dose 3, inhalation and oral gavage:
Animals were treated as follows: • 1. IV for 15 minutes • 2. Oral gavage, as soon as practicable following the 15-minute infusion • 3. Inhalation exposure, as soon as practicable following oral gavage. All animals were exposed to the low dose (5.26 μg/kg). • 4. Approximately 5 minutes after inhalation completion, IV for 15 minutes. • 5. 1 hour later, IV for 15 minutes • 6. 2 hours after oral gavage, IV for 15 minutes for 2 animals (1 low and 1 high oral dose) Inhaled, Oral and Combination Treprostinil Dosing Results: […]

[2] = low pH (stomach); cited from earlier work
[3] = cited from earlier work

With `CCCCC[C@H](O)/C=C/[C@H]1[C@@H]2CO[C@@H](C2)[C@@H]1C/C=C\CCCC(=O)O` [U-44069] the “maximum PAP during U-44069 infusion relative to baseline” value ([1]; IV U-44069 0.5 mg/mL, 10 mL/kg/hr for 15 minutes, all occasions except animal 2001) was “at least 150 % of the baseline”.

For `CCCCC[C@H](O)/C=C/[C@@H]1[C@H]2C/C(=C/CCCC(=O)O)O[C@H]2C[C@H]1O` [prostacyclin], the “stability at low pH” value [2] is listed as “inactivated by a low pH” and the “half-life in the blood” value [3] is listed as 3 to 5 min.

In the case of `CCCCC[C@H](O)CC[C@@H]1[C@H]2Cc3cccc(OCC(=O)O)c3C[C@H]2C[C@H]1O` [treprostinil], the “PAP reduction when oral treprostinil added to low dose inhaled treprostinil” value ([1]; combination dosing regimen, in magnitude or duration) was “additional PAP reduction was observed”, the “PAP following inhalation exposure (immediately post dosing)” value ([1]; inhalation 5.26, 10.6 or 34.1 μg/kg/day, all dose levels, during U-44069 infusion) was “approximately 120 % the baseline” and the “PAP at 1 hr post dosing compared to IPD values” ([1]; inhalation 5.26, 10.6 or 34.1 μg/kg/day, additional U-44069 injection 1 hour after inhalation) was “significantly increased”. The “PAP reduction at IPD, combination dosing Group 3” value ([1]; low dose inhaled (5.26 μg/kg/day) + high oral gavage, versus individual high dose inhalation (34.1 μg/kg/day), sustained to 1 hr PD) was “equivalent (#3001) or greater (#3002)”, the “PAP reduction, combination dosing Group 1” value ([1]; low dose inhaled (5.26 μg/kg/day) + low (5 mg/kg/dose) oral gavage, versus low dose inhaled alone) was “sustained effect to 1 hr” and the “PAP decrease at IPD, combination dosing Group 2” value ([1]; low dose inhaled (5.26 μg/kg/day) + mid (10 mg/kg/dose) oral gavage, versus individual mid-dose inhalation (10.6 μg/kg/day)) was “equivalent or greater”. For the same molecule, the “PAP after oral gavage” value ([1]; oral gavage 5, 10 or 15 mg/kg/dose, 1 hr PD and 2 hr PD) was “decreases in PAP were generally observed in a dose-related fashion” and the “PAP during the PAH condition, any route of administration” value ([1]; oral gavage, nose-only inhalation or combined) was “generally reduce PAP”.
